Values quoted from earlier work in US20250325531A1, “TREATMENT OF SYSTOLIC DYSFUNCTION” (MyoKardia, Inc., priority 2024, published 2025).

System: healthy volunteers / HFrEF
Conditions: high doses; correlated with increase in SET; cited from earlier work

For COC(=O)N1CCN(Cc2cccc(NC(=O)Nc3ccc(C)nc3)c2F)CC1 [omecamtiv mecarbil], the “ischemia in healthy volunteers” value is given as “resulted in ischemia”.
